How the values were obtained:
Assay type in all cases: in vivo
[1] = test system: Musca domestica Linnaeus adult houseflies; experiment: Needle inoculum (direct application) on adult flies
Experimental: (§1) The Solution may be poured into a container having a spray nozzle or provided in an aerosol container. Alternatively, the Solution may be poured into an open container for direct contact. The Solution may be poured directly onto pupa or sprayed. Several experiments were performed on Musca domestica Linnaeus adult houseflies, pupa, and larva using varying dilutions, concentrations, and combinations of components, along with a dihydrogen monoxide control to compare the effectiveness and potency of each composition for quickly killing adult flies, pupa, and larva. […] During experimentation, a needle inoculum (syringe) having a modified composition for adult flies, a spray inoculum having the modified composition for adult flies, and a dihydrogen monoxide control for adult flies were conducted. References to “needle inoculum” refers to directly applying the modified composition to the adult flies.

[2] = test system: Musca domestica Linnaeus house fly; experiment: Fly killing, general statements (application not specified); settings: for independent house fly adulticidal properties of the individual component: individual formula component
Description: The concentrations, formulas, and composition noted herein have been evaluated and tested for optimal effect against adult houseflies and pupa. Altering the preferred concentrations would decrease the effectiveness of the inventive Solution, leading to longer a time period before the flies and/or pupa are killed. The Solution may be poured into a container having a spray nozzle or provided in an aerosol container. Alternatively, the Solution may be poured into an open container for direct contact. The Solution may be poured directly onto pupa or sprayed. Several experiments were performed on Musca domestica Linnaeus adult houseflies, pupa, and larva using varying dilutions, concentrations, and combinations of components, along with a dihydrogen monoxide control to compare the effectiveness and potency of each composition for quickly killing adult flies, pupa, and larva. […] These minimal moments of delay between contact and expiration prevents the fly from falling and immediately dying in an undesired location, for example, on a food surface. […] The user can either wait for the fly to die solely from the spray, or, alternatively, the user can implement using the spray as one of the first steps for disabling the fly before immediately killing the fly with either more application of the sprayable composition or with another aid, for example, a fly swatter.
The invention, when sprayed on fly pupa, prevents the pupa from hatching. The preferred type of fly and fly pupa that are effectively killed by this Solution are Musca domestica Linnaeus houseflies. Because the composition (or Solution) is nontoxic, nonabrasive, and ingestible for humans, the Solution can be sprayed or applied directly to a surface, including food. Various experiments were conducted to evaluate the efficacy of each component used in the Solution.

[3] = test system: Musca domestica Linnaeus adult houseflies; experiment: Spray inoculum on adult flies; settings: 75° F.
Experimental: as §1

[4] = FIG. 30, 50% dilution, same temperature (75° F.)
[5] = FIG. 30, needle inoculum as printed, 0% dilution of 10 mg/mL, 75° F.
[6] = 50% dilution with water, time in E36/E37
[7] = printed 50% dilution, in the figure of the 75% dilution experiment
[8] = needle inoculum, 0% (no) dilution, 75° F., time in E2/E3
[9] = needle inoculum, 50% dilution with water, 75° F.
[10] = needle inoculum, 50% dilution with water, 75° F., time in E5/E6
[11] = needle inoculum, 75% dilution with water, 75° F.
[12] = needle inoculum, 90% dilution with water, 75° F.
[13] = 90% dilution with water, 30 minutes
[14] = needle inoculum, 75% dilution with water, 75° F., 30 minutes
[15] = needle inoculum, 90% dilution with water, 75° F., 30 minutes
[16] = needle inoculum, no (0%) dilution, 75° F.

In the case of CCCCC(CC)COC(=O)CC(C(=O)OCC(CC)CCCC)S(=O)(=O)[O-].[Na+] (centres unmarked) [dioctyl sodium sulfosuccinate], the “deaths of adult flies” value [1, 4] is reported as 10 out of 10, the “time within which the deaths occurred” value [1, 4] is reported as ≤ 46 s and the “deaths of adult flies” value ([1]; FIG. 30, 90% dilution) is reported as 10 out of 10. For the same molecule, the “time within which the deaths occurred” value ([1]; FIG. 30, 90% dilution) was ≤ 188 s, the “deaths of adult flies” value [1, 5] was 10 out of 10 and the “time within which the deaths occurred” value [1, 5] was ≤ 36 s. For the same molecule, the “time within which flies are immobilized and collapse” value ([2]; flies) was 30 to 60 s.
In the case of CCCCC(CC)COC(=O)CC(C(=O)OCC(CC)CCCC)S(=O)(=O)[O-].[Na+] (centres unmarked) [docusate, docusate sodium], the “time within which the deaths occurred” value ([3]; 50% dilution with water) is reported as ≤ 43 s, the “deaths of adult flies” value [3, 6] is reported as 10 out of 10 and the “time within which the deaths occurred” value ([3]; 90% dilution with water) is reported as ≤ 143 s. The “deaths of adult flies” value ([3]; 90% dilution with water, time in E42/E43) was 10 out of 10, the “deaths of adult flies” value ([3]; 95% dilution with water, time in E45) was 10 out of 10 and the “deaths of adult flies” value ([3]; 99% dilution with water, time in E47) was 10 out of 10. For the same molecule, the “time within which the deaths occurred” value ([3]; no dilution) was ≤ 68 s, the “deaths of adult flies” value ([3]; no dilution, time in E33/E34) was 10 out of 10 and the “time within which the deaths occurred” value [3, 7] was ≤ 89 s. The “deaths of adult flies” value ([3]; printed 50% dilution, in the figure of the 75% dilution experiment, time in E39/E40) was 10 out of 10, the “deaths of adult flies” value [1, 8] was 10 out of 10 and the “time within which the deaths occurred” value ([1]; needle inoculum, 0% dilution, 75° F.) was ≤ 48 s. The “time within which the deaths occurred” value [1, 9] was ≤ 56 s, the “deaths of adult flies” value [1, 10] was 10 out of 10 and the “time within which the deaths occurred” value [1, 11] was ≤ 126 s. The “deaths of adult flies” value ([1]; needle inoculum, 75% dilution with water, 75° F., time in E8/E9) was 10 out of 10, the “time within which the deaths occurred” value [1, 12] was ≤ 121 s and the “deaths of adult flies” value ([1]; needle inoculum, 90% dilution with water, 75° F., time in E11) was 10 out of 10. For the same molecule, the “deaths of adult flies” value ([1]; needle inoculum, 95% dilution with water, 75° F., time in E13) was 10 out of 10, the “deaths of adult flies” value ([1]; needle inoculum, 99% dilution with water, 75° F., time in E15) was 10 out of 10 and the “independent house fly adulticidal properties of the individual component” value [2] was “exhibit varying house fly adulticidal properties”.
With CCO [ethyl alcohol] the “deaths of adult flies” value [3, 6] was 10 out of 10, the “flight ability during the observation time” value ([3]; 75% dilution with water, 30 minutes) was “incapable of flight” and the “deaths of adult flies within 30 minutes” value ([3]; 75% dilution with water) was 4 out of 10. For the same molecule, the “flight ability during the observation time” value [3, 13] was “incapable of flight”, the “deaths of adult flies within 30 minutes” value ([3]; 90% dilution with water) was 1 out of 10 and the “flight ability during the observation time” value ([3]; no dilution) was “incapable of flight”. For the same molecule, the “deaths of adult flies” value ([3]; no dilution, time in E33/E34) was 10 out of 10, the “deaths of adult flies” value [1, 8] was 10 out of 10 and the “flight ability during the observation time” value [1, 9] was “incapable of flight”. The “deaths of adult flies” value [1, 10] was 10 out of 10, the “flight ability during the observation time” value [1, 14] was “incapable of flight” and the “deaths of adult flies within 30 minutes” value [1, 11] was 1 out of 10. The “flight ability during the observation time” value [1, 15] was “incapable of flight” and the “deaths of adult flies within 30 minutes” value [1, 12] was 0 out of 10.
OCC(O)CO [glycerin] was tested, and the “flight ability during the observation time” value ([3]; 50% dilution, 30 minutes) was “incapable of flight”, the “deaths of adult flies within 30 minutes” value ([3]; 50% dilution) was 6 out of 10 and the “flight ability during the observation time” value [3, 13] was “incapable of flight”. For the same molecule, the “deaths of adult flies within 30 minutes” value ([3]; 90% dilution with water) was 7 out of 10, the “flight ability during the observation time” value ([3]; no dilution) was “incapable of flight” and the “deaths of adult flies within 30 minutes” value ([3]; no dilution) was 0 out of 10. The “flight ability during the observation time” value ([3]; printed 50% dilution, in the figure of the 75% dilution experiment, 30 minutes) was “incapable of flight”, the “deaths of adult flies within 30 minutes” value [3, 7] was 6 out of 10 and the “flight ability during the observation time” value [1, 9] was “incapable of flight”. The “deaths of adult flies within 30 minutes” value [1, 9] was 5 out of 10, the “flight ability during the observation time” value [1, 14] was “incapable of flight” and the “deaths of adult flies within 30 minutes” value [1, 11] was 4 out of 10. For the same molecule, the “flight ability during the observation time” value [1, 15] was “incapable of flight”, the “deaths of adult flies within 30 minutes” value [1, 12] was 2 out of 10 and the “flight ability during the observation time” value [1, 16] was “incapable of flight”. The “deaths of adult flies within 30 minutes” value [1, 16] was 0 out of 10 and the “independent house fly adulticidal properties of the individual component” value [2] was “exhibit varying house fly adulticidal properties”.
